# Tests used:
# Cbl-b [1] = target: T1, Cbl-b (Homo sapiens, UniProt Q13191); test: Cbl-b Degradation Method B (Nano-Glo HiBiT lytic detection); type: cell-based; settings: Cbl-b-HiBit KI Jurkat Cells, incubated at least 6-24 hours; for DC50: half maximal degradation, read-out: Cbl-b Degredation Method B IC50; for Dmax: maximum degradation observed, read-out: Cbl-b Degredation Method B Dmax (%)
# T1 construct: Cbl-b-HiBit KI Jurkat Cells were purchased from Promega; host or cells: Cbl-b-HiBiT knock-in Jurkat cells
# T1 sequence (Q13191 whole entry): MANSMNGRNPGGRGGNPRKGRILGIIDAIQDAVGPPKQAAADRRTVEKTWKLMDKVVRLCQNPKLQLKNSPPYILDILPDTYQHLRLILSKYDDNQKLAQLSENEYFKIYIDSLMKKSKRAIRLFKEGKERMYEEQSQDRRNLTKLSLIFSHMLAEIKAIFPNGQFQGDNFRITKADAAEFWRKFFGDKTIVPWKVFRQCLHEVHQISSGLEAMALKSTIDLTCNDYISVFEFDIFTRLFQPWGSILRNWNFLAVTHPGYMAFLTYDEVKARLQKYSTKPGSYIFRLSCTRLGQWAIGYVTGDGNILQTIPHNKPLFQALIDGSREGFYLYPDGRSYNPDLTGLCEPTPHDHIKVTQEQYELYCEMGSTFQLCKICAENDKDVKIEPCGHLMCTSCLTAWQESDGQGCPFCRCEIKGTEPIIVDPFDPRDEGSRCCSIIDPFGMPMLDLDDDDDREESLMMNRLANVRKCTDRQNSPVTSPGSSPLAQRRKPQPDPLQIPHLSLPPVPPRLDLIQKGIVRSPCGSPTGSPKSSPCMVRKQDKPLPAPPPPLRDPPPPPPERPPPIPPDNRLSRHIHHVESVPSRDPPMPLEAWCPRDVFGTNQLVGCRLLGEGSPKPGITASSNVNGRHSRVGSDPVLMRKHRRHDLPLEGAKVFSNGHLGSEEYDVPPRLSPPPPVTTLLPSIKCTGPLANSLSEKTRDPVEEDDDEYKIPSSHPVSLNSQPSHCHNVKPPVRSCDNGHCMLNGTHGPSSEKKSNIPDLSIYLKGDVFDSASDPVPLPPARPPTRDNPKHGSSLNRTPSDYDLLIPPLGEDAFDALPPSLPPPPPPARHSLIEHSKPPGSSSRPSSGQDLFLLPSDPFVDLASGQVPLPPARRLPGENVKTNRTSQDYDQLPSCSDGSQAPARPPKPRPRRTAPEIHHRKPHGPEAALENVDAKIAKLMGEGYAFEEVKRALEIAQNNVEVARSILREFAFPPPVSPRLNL
# Outline: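 An 11-point, 3-fold compound dilution was applied for 6-24 hours to Jurkat cells carrying HiBiT-tagged endogenous Cbl-b. Lytic HiBiT luminescence quantified residual protein. Outputs are DC50 and Dmax relative to DMSO control.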
# Cbl-b [2] = target: T1, Cbl-b; test: Cbl-b Degradation Method A (FACS, anti-Cbl-b antibody staining); type: cell-based; settings: Cbl-b-HiBit KI Jurkat Cells, incubated at least 20 hours; for DC50: half maximal degradation, read-out: Cbl-b Degredation Method A IC50; for Dmax: Jurkat, maximum degradation observed, read-out: Cbl-b Degredation Method A Dmax (%)
# Outline: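 Readout is flow cytometry of fixed, permeabilized cells immunostained for Cbl-b (primary 1:200, AF488 secondary). Cells were Cbl-b-HiBit knock-in Jurkat, exposed to compound ≥20 h at 37 °C; half-maximal degradation concentration (DC50) and maximal degradation (Dmax) calculated relative to control.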
SMILES,DC50 (Cbl-b [1]),Dmax (Cbl-b [1]),DC50 (Cbl-b [2]),Dmax (Cbl-b [2])
"C[C@@H]1CN(C[C@H]2CC[C@H](OC3CCN(c4ccc5c(c4F)CN(C4CCC(=O)NC4=O)C5=O)CC3)CC2)CCN1Cc1cc2c(c(C(F)(F)F)c1)CN(c1cccc(C3(Cc4nncn4C)COC3)c1)C2=O (stereo partly drawn) [Example 195, 3-[4-fluoro-1-oxo-5-(4-{[(1r,4r)-4-{[(3R)-3-methyl-4-{[2-(3-{3-[(4-methyl-4H-1,2,4-triazol-3-yl)methyl]oxetan-3-yl}phenyl)-3-oxo-7-(trifluoromethyl)-2,3-dihydro-1H-isoindol-5-yl]methyl}piperazin-1-yl]methyl}cyclohexyl]oxy}piperidin-1-yl)-2,3-dihydro-1H-isoindol-2-yl]piperidine-2,6-dione]",< 5 nM,35 to 70%,< 5 nM,> 70%
"CC1CN(Cc2cc3c(c(C(F)(F)F)c2)CN(c2cccc(C4(Cc5nncn5C)COC4)c2)C3=O)CCN1C[C@H]1CC[C@H](OC2CCN(c3ccc4c(c3F)CN(C3CCC(=O)NC3=O)C4=O)CC2)CC1 (stereo partly shown) [Example 196, 3-[4-fluoro-1-oxo-5-(4-{[(1r,4r)-4-[(2-methyl-4-{[2-(3-{3-[(4-methyl-4H-1,2,4-triazol-3-yl)methyl]oxetan-3-yl}phenyl)-3-oxo-7-(trifluoromethyl)-2,3-dihydro-1H-isoindol-5-yl]methyl}piperazin-1-yl)methyl]cyclohexyl]oxy}piperidin-1-yl)-2,3-dihydro-1H-isoindol-2-yl]piperidine-2,6-dione]",< 5 nM,35 to 70%,< 5 nM,> 70%
"COc1c(N2CCC(O[C@H]3CC[C@H](CN4CCN(Cc5cc6c(c(C(F)(F)F)c5)CN(c5cccc([C@]7(Cc8nncn8C)C[C@@H](C#N)C7)c5)C6=O)CC4)CC3)CC2)ccc2c1CN(C1CCC(=O)NC1=O)C2=O (stereo partly shown) [Example 199, (1r,3r)-3-[(4-methyl-4H-1,2,4-triazol-3-yl)methyl]-3-(3-{1-oxo-6-[(4-{[(1r,4r)-4-({1-[2-(2,6-dioxopiperidin-3-yl)-4-methoxy-1-oxo-2,3-dihydro-1H-isoindol-5-yl]piperidin-4-yl}oxy)cyclohexyl]methyl}piperazin-1-yl)methyl]-4-(trifluoromethyl)-2,3-dihydro-1H-isoindol-2-yl}phenyl)cyclobutane-1-carbonitrile]",< 5 nM,35 to 70%,< 5 nM,> 70%
"CC1c2nc(N3CCC(O[C@H]4CC[C@H](CN5CCN(Cc6cc7c(c(C(F)(F)F)c6)CN(c6cccc([C@]8(Cc9nncn9C)C[C@@H](C#N)C8)c6)C7=O)CC5)CC4)CC3)ccc2C(=O)N1C1CCC(=O)NC1=O (stereo partly shown) [Example 203, (1r,3r)-3-[(4-methyl-4H-1,2,4-triazol-3-yl)methyl]-3-(3-{1-oxo-6-[(4-{[(1r,4r)-4-({1-[6-(2,6-dioxopiperidin-3-yl)-7-methyl-5-oxo-5H,6H,7H-pyrrolo[3,4-b]pyridin-2-yl]piperidin-4-yl}oxy)cyclohexyl]methyl}piperazin-1-yl)methyl]-4-(trifluoromethyl)-2,3-dihydro-1H-isoindol-2-yl}phenyl)cyclobutane-1-carbonitrile]",< 5 nM,35 to 70%,< 5 nM,35 to 70%
"CC1CN(C[C@H]2CC[C@H](OC3CCN(c4ccc5c(c4F)CN(C4CCC(=O)NC4=O)C5=O)CC3)CC2)CCN1Cc1cc2c(c(C(F)(F)F)c1)CN(c1cccc([C@]3(Cc4nncn4C)C[C@@H](C#N)C3)c1)C2=O (stereo partly shown) [Example 204, (1r,3r)-3-(3-{6-[(2-methyl-4-{[(1r,4r)-4-({1-[2-(2,6-dioxopiperidin-3-yl)-4-fluoro-1-oxo-2,3-dihydro-1H-isoindol-5-yl]piperidin-4-yl}oxy)cyclohexyl]methyl}piperazin-1-yl)methyl]-1-oxo-4-(trifluoromethyl)-2,3-dihydro-1H-isoindol-2-yl}phenyl)-3-[(4-methyl-4H-1,2,4-triazol-3-yl)methyl]cyclobutane-1-carbonitrile]",< 5 nM,35 to 70%,< 5 nM,> 70%
"CC1CN(C[C@H]2CC[C@H](OC3CCN(c4ccc5c(n4)C(C)N(C4CCC(=O)NC4=O)C5=O)CC3)CC2)CCN1Cc1cc2c(c(C(F)(F)F)c1)CN(c1cccc([C@]3(Cc4nncn4C)C[C@@H](C#N)C3)c1)C2=O (stereo partly shown) [Example 208, (1r,3r)-3-(3-{6-[(2-methyl-4-{[(1r,4r)-4-({1-[6-(2,6-dioxopiperidin-3-yl)-7-methyl-5-oxo-5H,6H,7H-pyrrolo[3,4-b]pyridin-2-yl]piperidin-4-yl}oxy)cyclohexyl]methyl}piperazin-1-yl)methyl]-1-oxo-4-(trifluoromethyl)-2,3-dihydro-1H-isoindol-2-yl}phenyl)-3-[(4-methyl-4H-1,2,4-triazol-3-yl)methyl]cyclobutane-1-carbonitrile]",< 5 nM,35 to 70%,5 to 50 nM,35 to 70%
"CC1CN(C[C@H]2CC[C@H](OC3CCN(c4ccc5c(n4)C(C)N(C4CCC(=O)NC4=O)C5=O)CC3)CC2)CCN1Cc1cc2c(c(C(F)(F)F)c1)CN(c1cccc(C3(Cc4nncn4C)CCC3)c1)C2=O (stereo partly shown) [Example 209, 3-[7-methyl-5-oxo-2-(4-{[(1r,4r)-4-[(3-methyl-4-{[2-(3-{1-[(4-methyl-4H-1,2,4-triazol-3-yl)methyl]cyclobutyl}phenyl)-3-oxo-7-(trifluoromethyl)-2,3-dihydro-1H-isoindol-5-yl]methyl}piperazin-1-yl)methyl]cyclohexyl]oxy}piperidin-1-yl)-5H,6H,7H-pyrrolo[3,4-b]pyridin-6-yl]piperidine-2,6-dione]",< 5 nM,35 to 70%,5 to 50 nM,35 to 70%
"CC1c2nc(N3CCC(O[C@H]4CC[C@H](CN5CCN(Cc6cc7c(c(C(F)(F)F)c6)CN(c6cccc(C8(Cc9nncn9C9CC9)COC8)c6)C7=O)CC5)CC4)CC3)ccc2C(=O)N1C1CCC(=O)NC1=O (stereo partly shown) [Example 211, 3-[7-methyl-5-oxo-2-(4-{[(1r,4r)-4-[(4-{[2-(3-{3-[(4-cyclopropyl-4H-1,2,4-triazol-3-yl)methyl]oxetan-3-yl}phenyl)-3-oxo-7-(trifluoromethyl)-2,3-dihydro-1H-isoindol-5-yl]methyl}piperazin-1-yl)methyl]cyclohexyl]oxy}piperidin-1-yl)-5H,6H,7H-pyrrolo[3,4-b]pyridin-6-yl]piperidine-2,6-dione]",> 500 nM,,< 5 nM,< 35%
"CC1CN(C[C@H]2CC[C@H](OC3CCN(c4ccc5c(n4)C(C)N(C4CCC(=O)NC4=O)C5=O)CC3)CC2)CCN1Cc1cc2c(c(C(F)(F)F)c1)CN(c1cccc(C3(Cc4nncn4C)CC3)c1)C2=O (stereo partly shown) [Example 212, 3-[7-methyl-5-oxo-2-(4-{[(1r,4r)-4-[(3-methyl-4-{[2-(3-{1-[(4-methyl-4H-1,2,4-triazol-3-yl)methyl]cyclopropyl}phenyl)-3-oxo-7-(trifluoromethyl)-2,3-dihydro-1H-isoindol-5-yl]methyl}piperazin-1-yl)methyl]cyclohexyl]oxy}piperidin-1-yl)-5H,6H,7H-pyrrolo[3,4-b]pyridin-6-yl]piperidine-2,6-dione]",< 5 nM,35 to 70%,5 to 50 nM,35 to 70%
"CC1c2nc(N3CCC(O[C@H]4CC[C@H](CN5C[C@@H]6C[C@H]5CN6Cc5cc6c(c(C(F)(F)F)c5)CN(c5cccc([C@]7(Cc8nncn8C)C[C@H](C#N)C7)c5)C6=O)CC4)CC3)ccc2C(=O)N1C1CCC(=O)NC1=O (stereo partly drawn) [Example 214, (1r,3r)-3-[(4-methyl-4H-1,2,4-triazol-3-yl)methyl]-3-[3-(1-oxo-6-{[(1S,4S)-5-{[(1r,4r)-4-({1-[6-(2,6-dioxopiperidin-3-yl)-7-methyl-5-oxo-5H,6H,7H-pyrrolo[3,4-b]pyridin-2-yl]piperidin-4-yl}oxy)cyclohexyl]methyl}-2,5-diazabicyclo[2.2.1]heptan-2-yl]methyl}-4-(trifluoromethyl)-2,3-dihydro-1H-isoindol-2-yl)phenyl]cyclobutane-1-carbonitrile]",< 5 nM,35 to 70%,5 to 50 nM,35 to 70%
"Cn1cnnc1C[C@]1(c2cccc(N3Cc4c(cc(CN5CCN(C[C@H]6CC[C@H](OC7CCN(c8ccc9c(c8)n(C)c(=O)n9C8CCC(=O)NC8=O)CC7)CC6)CC5)cc4C(F)(F)F)C3=O)c2)C[C@H](C#N)C1 (stereo partly shown) [Example 215, (1r,3r)-3-[(4-methyl-4H-1,2,4-triazol-3-yl)methyl]-3-(3-{1-oxo-6-[(4-{[(1r,4r)-4-({1-[1-(2,6-dioxopiperidin-3-yl)-3-methyl-2-oxo-2,3-dihydro-1H-1,3-benzodiazol-5-yl]piperidin-4-yl}oxy)cyclohexyl]methyl}piperazin-1-yl)methyl]-4-(trifluoromethyl)-2,3-dihydro-1H-isoindol-2-yl}phenyl)cyclobutane-1-carbonitrile]",< 5 nM,35 to 70%,< 5 nM,> 70%

# — patent US20260184710A1, “CASITAS B-LINEAGE LYMPHOMA PROTOONCOGENE B (CBL-B) DEGRADING COMPOUNDS AND ASSOCIATED METHODS OF USE” (Arvinas Operations, Inc., priority 2022, published 2026)
